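Results reflect a 48-hour exposure of cells in 96-well plates to compound at five concentrations. GI50 is the concentration that inhibits growth by half.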 Activity calls are given as the source filed them. Rule as the data show it: active = GI50 up to about 1.1 µM and inactive = higher.
Tests used:
Assay in all cases: NCI anticancer screen, dose series, 48 h
[1] = test system: KM12
[2] = test system: LXFL 529
[3] = test system: RXF 393
[4] = test system: U-251
[5] = test system: KM-20L2
[6] = test system: M19-MEL
[7] = test system: NCI-H522
[8] = test system: DMS-273
[9] = test system: SK-OV-3
[10] = test system: UACC-62
[11] = test system: COLO 205
[12] = test system: A549
[13] = test system: M14
[14] = test system: CCRF-CEM
[15] = test system: NCI-H226
[16] = test system: TK-10
[17] = test system: SK-MEL-5
[18] = test system: K562
[19] = test system: SNB-78
[20] = test system: SK-MEL-28
[21] = test system: HCT-15
[22] = test system: UACC-257
[23] = test system: OVCAR-5
[24] = test system: OVCAR-8
[25] = test system: ACHN
[26] = test system: NCI-H460
[27] = test system: EKVX
[28] = test system: MOLT-4
[29] = test system: IGROV-1
[30] = test system: HT-29
[31] = test system: Malme-3M
[32] = test system: RPMI-8226
[33] = test system: SK-MEL-2
[34] = test system: OVCAR-3
[35] = test system: NCI-H23
[36] = test system: UO-31
[37] = test system: HOP-62
[38] = test system: HCC 2998
[39] = test system: SN12C
[40] = test system: DMS-114
[41] = test system: LOX IMVI
[42] = test system: 786-0
[43] = test system: DLD-1
[44] = test system: SF-295
[45] = test system: SNB-19
[46] = test system: OVCAR-4
[47] = test system: SW-620
[48] = test system: SF-268
[49] = test system: CAKI-1
[50] = test system: SNB-75
[51] = test system: XF498
[52] = test system: SF-539
[53] = test system: HOP-92
[54] = test system: A498
[55] = test system: HL-60
[56] = test system: HCT-116
[57] = test system: NCI/ADR-RES
[58] = test system: MCF7
[59] = test system: HOP-18

## Cc1cc2c(c(C(=O)O)c1C)-c1cccc(Cl)c1C2=O
[1]
  GI50: > 100 µM (inactive)
[2]
  GI50: > 100 µM (inactive)
[3]
  GI50: > 100 µM (inactive)
[4]
  GI50: > 100 µM (inactive)
[5]
  GI50: > 100 µM (inactive)
[6]
  GI50: > 100 µM (inactive)
[7]
  GI50: > 100 µM (inactive)
[8]
  GI50: > 100 µM (inactive)
[9]
  GI50: > 100 µM (inactive)
[10]
  GI50: > 100 µM (inactive)
[11]
  GI50: > 100 µM (inactive)
[12]
  GI50: > 100 µM (inactive)
[13]
  GI50: > 100 µM (inactive)
[14]
  GI50: > 100 µM (inactive)
[15]
  GI50: > 100 µM (inactive)
[16]
  GI50: > 100 µM (inactive)
[17]
  GI50: > 100 µM (inactive)
[18]
  GI50: > 100 µM (inactive)
[19]
  GI50: > 100 µM (inactive)
[20]
  GI50: > 100 µM (inactive)
[21]
  GI50: > 100 µM
[22]
  GI50: > 100 µM (inactive)
[23]
  GI50: > 100 µM (inactive)
[24]
  GI50: > 100 µM (inactive)
[25]
  GI50: > 100 µM (inactive)
[26]
  GI50: > 100 µM (inactive)
[27]
  GI50: > 100 µM (inactive)
[28]
  GI50: > 100 µM (inactive)
[29]
  GI50: > 100 µM (inactive)
[30]
  GI50: > 100 µM (inactive)
[31]
  GI50: > 100 µM (inactive)
[32]
  GI50: > 100 µM (inactive)
[33]
  GI50: > 100 µM (inactive)
[34]
  GI50: > 100 µM (inactive)
[35]
  GI50: > 100 µM (inactive)
[36]
  GI50: > 100 µM (inactive)
[37]
  GI50: > 100 µM (inactive)
[38]
  GI50: > 100 µM (inactive)
[39]
  GI50: > 100 µM (inactive)
[40]
  GI50: > 100 µM (inactive)
[41]
  GI50: > 100 µM (inactive)
[42]
  GI50: > 100 µM (inactive)
[43]
  GI50: > 100 µM (inactive)
[44]
  GI50: > 100 µM (inactive)
[45]
  GI50: > 100 µM (inactive)
[46]
  GI50: > 100 µM (inactive)
[47]
  GI50: > 100 µM (inactive)
[48]
  GI50: > 100 µM (inactive)
[49]
  GI50: > 100 µM (inactive)
[50]
  GI50: > 100 µM (inactive)
[51]
  GI50: > 100 µM (inactive)

## Cc1[nH]c2cc([N+](=O)[O-])ccc2c1[N+](=O)[O-]
[1]
  GI50: 21.3 µM (inactive)
[2]
  GI50: 17.2 µM (inactive)
[3]
  GI50: 13.6 µM (inactive)
[4]
  GI50: 19.9 µM (inactive)
[5]
  GI50: 27.4 µM (inactive)
[7]
  GI50: 13.3 µM (inactive)
[11]
  GI50: 13.7 µM (inactive)
[12]
  GI50: 17.1 µM (inactive)
[13]
  GI50: 19.5 µM (inactive)
[14]
  GI50: 16.8 µM (inactive)
[15]
  GI50: 14.2 µM (inactive)
[16]
  GI50: 29.7 µM (inactive)
[17]
  GI50: 14 µM (inactive)
[18]
  GI50: 22.2 µM (inactive)
[20]
  GI50: 21 µM (inactive)
[22]
  GI50: 17 µM (inactive)
[23]
  GI50: 27.2 µM (inactive)
[24]
  GI50: 25.8 µM (inactive)
[25]
  GI50: 15.5 µM (inactive)
[26]
  GI50: 20.6 µM (inactive)
[27]
  GI50: 11.7 µM (inactive)
[28]
  GI50: 19.5 µM (inactive)
[29]
  GI50: 26.2 µM (inactive)
[30]
  GI50: 27.9 µM (inactive)
[31]
  GI50: 13.9 µM (inactive)
[32]
  GI50: 10.5 µM (inactive)
[33]
  GI50: 14.1 µM (inactive)
[34]
  GI50: 25.1 µM (inactive)
[35]
  GI50: 17.7 µM (inactive)
[36]
  GI50: 7.96 µM (inactive)
[37]
  GI50: 7.28 µM (inactive)
[38]
  GI50: 15 µM (inactive)
[39]
  GI50: 25.6 µM (inactive)
[40]
  GI50: 9.93 µM (inactive)
[52]
  GI50: 18.8 µM (inactive)
[41]
  GI50: 24.6 µM (inactive)
[42]
  GI50: 29 µM (inactive)
[43]
  GI50: 22.6 µM (inactive)
[44]
  GI50: 17.3 µM (inactive)
[45]
  GI50: 18.7 µM (inactive)
[46]
  GI50: 14.1 µM (inactive)
[53]
  GI50: 3.9 µM (inactive)
[47]
  GI50: 25.2 µM (inactive)
[54]
  GI50: 17.3 µM (inactive)
[48]
  GI50: 22.1 µM (inactive)
[49]
  GI50: 19 µM (inactive)
[50]
  GI50: 19 µM (inactive)
[51]
  GI50: 20.7 µM (inactive)
[55]
  GI50: 20.6 µM (inactive)

## CCN(CC)CCCNc1ncc(C)c2[nH]c3ccncc3c12
[1]
  GI50: 6.18 µM (inactive)
[3]
  GI50: 6.61 µM (inactive)
[4]
  GI50: 7.21 µM (inactive)
[5]
  GI50: 6.24 µM (inactive)
[6]
  GI50: 11.5 µM (inactive)
[7]
  GI50: 7.74 µM (inactive)
[8]
  GI50: 7.26 µM (inactive)
[9]
  GI50: 5.82 µM (inactive)
[10]
  GI50: 8.99 µM (inactive)
[11]
  GI50: 4.13 µM (inactive)
[12]
  GI50: 4.91 µM (inactive)
[14]
  GI50: 21.6 µM (inactive)
[15]
  GI50: 5.69 µM (inactive)
[17]
  GI50: 13.6 µM (inactive)
[18]
  GI50: 14.8 µM (inactive)
[19]
  GI50: 19.1 µM (inactive)
[20]
  GI50: 12.9 µM (inactive)
[21]
  GI50: 35.1 µM
[22]
  GI50: 12.5 µM (inactive)
[23]
  GI50: 4.7 µM (inactive)
[24]
  GI50: 7.29 µM (inactive)
[26]
  GI50: 3.33 µM (inactive)
[27]
  GI50: 16.1 µM (inactive)
[28]
  GI50: 2.65 µM (inactive)
[29]
  GI50: 5.37 µM (inactive)
[30]
  GI50: 4.22 µM (inactive)
[31]
  GI50: 10.3 µM (inactive)
[32]
  GI50: 50.5 µM (inactive)
[33]
  GI50: 10.5 µM (inactive)
[56]
  GI50: 6.58 µM (inactive)
[34]
  GI50: 12.2 µM (inactive)
[35]
  GI50: 12.7 µM (inactive)
[36]
  GI50: 28.1 µM (inactive)
[37]
  GI50: 18.6 µM (inactive)
[38]
  GI50: 8.61 µM (inactive)
[57]
  GI50: > 100 µM (inactive)
[39]
  GI50: 4.88 µM (inactive)
[40]
  GI50: 7.8 µM (inactive)
[52]
  GI50: 6.5 µM (inactive)
[41]
  GI50: 3.64 µM (inactive)
[43]
  GI50: 31 µM (inactive)
[44]
  GI50: 11.2 µM (inactive)
[45]
  GI50: 15.1 µM (inactive)
[46]
  GI50: 4.5 µM (inactive)
[53]
  GI50: 6.1 µM (inactive)
[47]
  GI50: 4.71 µM (inactive)
[54]
  GI50: 17.6 µM (inactive)
[48]
  GI50: 6.75 µM (inactive)
[58]
  GI50: 3.31 µM (inactive)
[50]
  GI50: 12.4 µM (inactive)
[51]
  GI50: 11.4 µM (inactive)
[55]
  GI50: 22 µM (inactive)

## COc1cc(C2c3cc4c(cc3[C@@H](NCCN3CCOCC3)C3COC(=O)[C@H]23)OCO4)cc(OC)c1O (stereo not given in full)
[1]
  GI50: 2.42 µM (inactive)
[2]
  GI50: 11.3 µM (inactive)
[3]
  GI50: 2.3 µM (inactive)
[4]
  GI50: 0.906 µM (active)
[5]
  GI50: 2.96 µM (inactive)
[7]
  GI50: 2.51 µM (inactive)
[8]
  GI50: 0.437 µM (active)
[10]
  GI50: 1.21 µM (inactive)
[59]
  GI50: 2.81 µM (inactive)
[13]
  GI50: 2.57 µM (inactive)
[16]
  GI50: 7.85 µM (inactive)
[18]
  GI50: 5.56 µM (inactive)
[19]
  GI50: 16.5 µM (inactive)
[20]
  GI50: 3.71 µM (inactive)
[21]
  GI50: 1.65 µM
[22]
  GI50: 3.23 µM (inactive)
[24]
  GI50: 2.18 µM (inactive)
[27]
  GI50: 14.2 µM (inactive)
[29]
  GI50: 8.11 µM (inactive)
[30]
  GI50: 4.65 µM (inactive)
[31]
  GI50: 2.31 µM (inactive)
[33]
  GI50: 4.17 µM (inactive)
[56]
  GI50: 3.01 µM (inactive)
[34]
  GI50: 8.02 µM (inactive)
[36]
  GI50: 1.77 µM (inactive)
[37]
  GI50: 0.541 µM (active)
[38]
  GI50: 1.97 µM (inactive)
[52]
  GI50: 0.836 µM (active)
[41]
  GI50: 0.962 µM (active)
[42]
  GI50: 1.19 µM (inactive)
[43]
  GI50: 6.18 µM (inactive)
[44]
  GI50: 1.35 µM (inactive)
[45]
  GI50: 2.51 µM (inactive)
[46]
  GI50: 17.8 µM (inactive)
[53]
  GI50: 1.04 µM (active)
[47]
  GI50: 1.23 µM (inactive)
[48]
  GI50: 1.56 µM (inactive)
[49]
  GI50: 1.97 µM (inactive)

Reference: ChEMBL document CHEMBL1201862, “PubChem BioAssay data set” (2004)
